Experimental data taken from patent US11639350B2, “Heteroaryldihydropyrimidine derivatives and methods of treating hepatitis B infections” (Janssen Pharmaceutica NV, priority 2018, dated 2023).
Read-outs that look alike come from different tables or passages of the source.

How the values were obtained:
[1] = test system: HBV; assay: HBV inhibitory activity: HBV DNA in the culture medium of HepG2.2.15 cells by q-PCR; type: cell-based; settings: HepG2.2.15 cells, 6 days of compound treatment, HBV DNA in culture medium by q-PCR, highest concentration 10 μM, read-out: EC50
Method in brief: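 Supernatant HBV DNA quantified by q-PCR after a 6-day compound exposure, with one mid-course medium change, of HepG2.2.15 cells (stably integrated HBV; 40,000 per well, 2% FBS). Eight-point 3-fold series topped at 10 μM for antiviral EC50; separate plates of 5,000 cells per well with 100 μM top give CC50.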

[2] = Cytotoxicity determination in HepG2.2.15 cells (CCK-8); type: cell-based; settings: human, 6 days of compound treatment, CCK-8, highest concentration 100 μM
Method in brief: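 CC50 is from CCK-8 absorbance (450 nm, 630 nm reference) after 2.5 h with reagent. Before that, compounds were applied for six days, top concentration 100 μM, eight threefold dilutions, one mid-course medium change, to stably HBV-integrated HepG2.2.15 cells plated at 5,000/well in 2% FBS.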

[3] = Hepatitis B virus, HepG2.2.15, 144 h

`COC(=O)C1=C(C2CCN(S(C)(=O)=O)CC2)NC(c2nccs2)=NC1c1ccc(F)c(F)c1Cl` (single isomer, unassigned) [Compound 59B, Methyl 4-(2-chloro-3,4-difluorophenyl)-6-(1-(methylsulfonyl)-piperidin-4-yl)-2-(thiazol-2-yl)-1,4-dihydropyrimidine-5-carboxylate] gave an EC50 [1, 3] of 388 nM and a CC50 at 6 days [2] of 27900 nM.
Molecule `COC(=O)C1=C(C2CCCN2S(C)(=O)=O)NC(c2nccs2)=NC1c1ccc(F)cc1Cl` (single isomer, unassigned) [Compound 69C, Methyl 4-(2-chloro-4-fluorophenyl)-6-(1-(methylsulfonyl)-pyrrolidin-2-yl)-2-(thiazol-2-yl)-1,4-dihydropyrimidine-5-carboxylate] has an EC50 [1, 3] of 448 nM and a CC50 at 6 days [2] of 11900 nM.
Work on `COC(=O)C1=C(C2CCCO2)NC(c2nccs2)=NC1c1ccc(F)cc1Cl` (single isomer, unassigned) [Compound 70D, Methyl 4-(2-chloro-4-fluorophenyl)-6-(tetrahydrofuran-2-yl)-2-(thiazol-2-yl)-1,4-dihydropyrimidine-5-carboxylate] yielded an EC50 [1, 3] of 140 nM and a CC50 at 6 days [2] of 22600 nM.
`COC(=O)C1=C(C2CCC(C(=O)O)C2)NC(c2nccs2)=NC1c1ccc(F)cc1Cl` (single isomer, unassigned) [Compound 72C, 3-(6-(2-Chloro-4-fluorophenyl)-5-(methoxycarbonyl)-2-(thiazol-2-yl)-3,6-dihydropyrimidin-4-yl)cyclopentanecarboxylic Acid] showed an EC50 [1] of 475 nM and a CC50 at 6 days [2] of 22100 nM.
`COC(=O)C1=C([C@H]2CC[C@@H](C(=O)OC)O2)NC(c2nccs2)=NC1c1cccc(F)c1Cl` (single isomer, unassigned) [Compound 73H, cis-Methyl 4-(2-chloro-3-fluorophenyl)-6-(5-(methoxycarbonyl)-tetrahydro-furan-2-yl)-2-(thiazol-2-yl)-1,4-dihydropyrimidine-5-carboxylate] gave an EC50 [1, 3] of 350 nM and a CC50 at 6 days [2] of 32900 nM.
`COC(=O)C1=C(C2CN(S(C)(=O)=O)C2)NC(c2nccs2)=NC1c1ccc(F)cc1Cl` (single isomer, unassigned) [Compound 84A, 4-(2-Chloro-4-fluoro-phenyl)-6-(1-methanesulfonyl-azetidin-3-yl)-2-thiazol-2-yl-1,4-dihydro-pyrimidine-5-carboxylic Acid Methyl Ester] gave an EC50 [1, 3] of 118 nM and a CC50 at 6 days [2] of 29000 nM.
Work on `COC(=O)C1=C(C2CC(C(=O)OC)C2)NC(c2nccs2)=NC1c1ccc(F)cc1Cl` (single isomer, unassigned) [Compound 85C, 4-(2-Chloro-4-fluoro-phenyl)-6-(3-methoxycarbonyl-cyclobutyl)-2-thiazol-2-yl-1,4-dihydro-pyrimidine-5-carboxylic Acid Methyl Ester] yielded an EC50 [1, 3] of 600 nM and a CC50 at 6 days [2] of 95400 nM.
`COC(=O)C1=C([C@H]2C[C@H](NC(C)=O)C2)NC(c2nccs2)=NC1c1ccc(F)cc1Cl` (single isomer, unassigned) [Compound 89R, trans-Methyl 6-(3-acetamidocyclobutyl)-4-(2-chloro-4-fluoro-phenyl)-2-(thiazol-2-yl)-1,4-dihydropyrimidine-5-carboxylate] showed an EC50 [1, 3] of 112 nM and a CC50 at 6 days [2] of 17200 nM.
For `COC(=O)C1=C(C2CC2)NC(c2nccs2)=NC1c1ccc(F)cc1Cl` (single isomer, unassigned) [Compound 90A, Methyl 4-(2-chloro-4-fluorophenyl)-6-cyclopropyl-2-(thiazol-2-yl)-1,4-dihydropyrimidine-5-carboxylate], the EC50 [1, 3] was 23 nM and the CC50 at 6 days [2] was 26700 nM.
With `CCOC(=O)C1=C([C@@H]2C[C@H]2CC(=O)O)NC(c2nccs2)=NC1c1ccc(F)cc1Cl` (single isomer, unassigned) [Compound 92, 2-(trans-2-(6-(2-Chloro-4-fluorophenyl)-5-(ethoxycarbonyl)-2-(thiazol-2-yl)-3,6-dihydropyrimidin-4-yl)cyclopropyl)acetic Acid] the EC50 [1, 3] was 326 nM and the CC50 at 6 days [2] was 99000 nM.
In the case of `COC(=O)C1=C(C2CCCN(S(C)(=O)=O)C2)NC(c2nccs2)=NC1c1cccc(F)c1Cl` (single isomer, unassigned) [Compound 98A, Methyl 4-(2-chloro-3-fluorophenyl)-6-(1-(methylsulfonyl)piperidin-3-yl)-2-(thiazol-2-yl)-1,4-dihydropyrimidine-5-carboxylate], the EC50 [1, 3] is reported as 270 nM and the CC50 at 6 days [2] is reported as 11400 nM.
With `COC(=O)C1=C(C2CCN(S(=O)(=O)C3COC3)CC2)NC(c2nccs2)=NC1c1ccc(F)cc1Cl` (single isomer, unassigned) [Compound 110B, Methyl 4-(2-chloro-4-fluorophenyl)-6-(1-(oxetan-3-ylsulfonyl)-piperidin-4-yl)-2-(thiazol-2-yl)-1,4-dihydropyrimidine-5-carboxylate] the EC50 [1, 3] was 798 nM and the CC50 at 6 days [2] was > 10000 nM.
Molecule `COC(=O)C1=C(C2CCN(S(C)(=O)=O)CC2)NC(c2nccs2)=NC1c1cccc(F)c1Cl` (single isomer, unassigned) [Compound 112B, Methyl 4-(2-chloro-3-fluorophenyl)-6-(1-(methylsulfonyl)-piperidin-4-yl)-2-(thiazol-2-yl)-1,4-dihydropyrimidine-5-carboxylate] has an EC50 [1, 3] of 950 nM and a CC50 at 6 days [2] of 8200 nM.
Work on `COC(=O)CCS(=O)(=O)N1CCC(C2=C(C(=O)OC)C(c3cccc(F)c3Cl)N=C(c3nccs3)N2)CC1` (single isomer, unassigned) [Compound 113Y, 4-(2-Chloro-3-fluoro-phenyl)-6-[1-(2-methoxycarbonyl-ethane-sulfonyl)-piperidin-4-yl]-2-thiazol-2-yl-1,4-dihydro-pyrimidine-5-carboxylic Acid Methyl Ester] yielded an EC50 [1, 3] of 966 nM and a CC50 at 6 days [2] of 11800 nM.
In the case of `CNS(=O)(=O)N1CCC(C2=C(C(=O)OC)C(c3cccc(F)c3Cl)N=C(c3nccs3)N2)CC1` (single isomer, unassigned) [Compound 115B, 4-(2-Chloro-3-fluoro-phenyl)-6-(1-methylsulfamoyl-piperidin-4-yl)-2-thiazol-2-yl-1,4-dihydro-pyrimidine-5-carboxylic Acid Methyl Ester], the EC50 [1, 3] is reported as 342 nM and the CC50 at 6 days [2] is reported as 19100 nM.
With `COC(=O)C1=C(C2CCN(S(=O)(=O)c3ccccn3)CC2)NC(c2nccs2)=NC1c1cccc(F)c1Cl` (single isomer, unassigned) [Compound 116B, Methyl 4-(2-chloro-3-fluorophenyl)-6-(1-(pyridin-2-ylsulfonyl)-piperidin-4-yl)-2-(thiazol-2-yl)-1,4-dihydropyrimidine-5-carboxylate] the EC50 [1, 3] was 207 nM and the CC50 at 6 days [2] was 71300 nM.
For `COC(=O)C1=C(C2CCN(S(C)(=O)=O)CC2)NC(c2nccs2)=NC1c1ccc(F)cc1Br` (single isomer, unassigned) [Compound 120A, Methyl 4-(2-bromo-4-fluorophenyl)-6-(1-(methylsulfonyl)-piperidin-4-yl)-2-(thiazol-2-yl)-1,4-dihydropyrimidine-5-carboxylate], the EC50 [1] was 350 nM and the CC50 at 6 days [2] was 31700 nM.
For `COC(=O)C1=C(C2CCN(C(=O)CO)CC2)NC(c2nccs2)=NC1c1ccc(F)cc1Cl` (single isomer, unassigned) [Compound 122B, Methyl 4-(2-chloro-4-fluorophenyl)-6-(1-(2-hydroxyacetyl)-piperidin-4-yl)-2-(thiazol-2-yl)-1,4-dihydropyrimidine-5-carboxylate], the EC50 [1, 3] was 57 nM and the CC50 at 6 days [2] was 31600 nM.
